From paper PMC10178127, “Immunomodulatory Effects of the Pea Defensin Psd1 in the Caco-2/Immune Cells Co-Culture upon Candida albicans Infection” (International Journal of Molecular Sciences, 2023)

Tests used:
C. albicans v47a3 = test: Antifungal activity, microdilution method; type: cell-based, Candida albicans
Protocol: Antifungal activity of recombinant Psd1 against C. albicans v47a3 was tested by the microdilution method using 96-well microplates mainly as described for this defensin in [15]. Yeast cells in half-modified YPD broth at a final concentration of 10^4 cells/mL were used. Final Psd1 concentrations in the wells were 100, 50, 25, 12.5, 6.25, 3.125, and 1.56 μM. Plates were incubated at 30 °C for 24 h. Yeast growth was estimated using an inverted microscope as well as by measuring the optical density at 540 nm. The percentage of growth inhibition was defined as growth inhibition(%) = ((Acontrol − Asample)/Acontrol) × 100%. All of the experiments were performed twice in triplicate.

[1] = tested on: human peripheral blood mononuclear cells (PBMCs); test: Resazurin-based cell cytotoxicity assay; conditions: 24 h
Protocol: The cytotoxic properties of the pea defensin Psd1 were investigated by resazurin-based cell cytotoxicity assay as previously described. In brief, PBMCs were seeded in 96-well plates at 2 × 10^6 cells per well in RPMI-1640 supplemented with 10% FBS and kept in a CO2 incubator for 24 h. After this, serial two-fold dilutions of defensin in a complete culture medium were added to the wells at final concentrations from 0.2 to 50 μM and the plates were incubated for 24 h. Resazurin (Sigma) was added at a final concentration of 70 µM, and the plates were incubated overnight (16–18 h). Fluorescent resorufin was registered using a 535/595 filter at PlateReader AF2200 (Eppendorf). Untreated cells were used as negative controls. Non-ionogenic detergent Triton X-100 and membrane-active peptide melittin from honeybee venom were used as positive controls. The cell viability was calculated according to the following equation: cell viability (%) = (Fsample/Fcontrol) × 100%. Cell lysis was monitored with an Olympus CKX41 microscope.

[2] = tested on: polarized Caco-2 monolayer; test: Real-time PCR of HBD-2, IL-1β, IL-8/CXCL8 genes in Caco-2 cells; type: cell-based, human
Protocol: Caco-2 cells were seeded into the wells of 24-well plates in the complete RPMI-1640 medium containing 10% FBS and 1X antibiotic-antimycotic solution and kept in a humidified CO2-incubator (5% CO2, 37 °C). Cells were grown for 18 days and the medium was changed twice a week. The presence of a cell monolayer was checked using an inverted microscope and the plates were incubated one more week for complete polarization of Caco-2 cells. Caco-2 cells were stimulated by adding fresh complete RPMI-1640 medium without antibiotics, containing Psd1 at the final concentration of 2 µM or Candida albicans at the concentration of 5 × 10^4 cells/mL (1.3 × 10^4 cells per cm^2 of Caco-2 monolayer) or yeast cells together with the pea defensin at the same concentration. RPMI-1640 medium only was used in control wells.
Total RNA was isolated from Caco-2 cells using TRIzol reagent (Invitrogen) according to the manufacturer’s instructions after 4 or 24 h of stimulation and cell washing by RPMI-1640 medium. The quality and quantity of total RNA were determined by the A260/280 ratio using NanoPhotometer NP80 (Implen GmbH, München, Germany) as well as agarose gel electrophoresis (Supporting Materials, Figure S3). RNase inhibitor (Evrogen, Moscow, Russia) was added to the final preparation of total RNA. Two μg of total RNA was taken to synthesize the cDNA using MINT-Universal cDNA synthesis kit (Evrogen, Moscow, Russia) containing MMLV-based reverse transcriptase following the manufacturer’s instructions.
Real-time PCR was performed on CFX Opus 96 Real-Time PCR System (Bio-Rad, Hercules, CA, USA) using the SYBR Green PCR kit (Evrogen, Moscow, Russia) and target-specific primers (Supporting Materials, Table S4). The internal control housekeeping gene GAPDH was amplified simultaneously in separate reaction tubes [36]. The reaction conditions were set as follows: initial heating at 95 °C for 3 min, followed by 50 cycles of reactions at 95 °C (15 s), followed by 62 °C (20 s), and finally 72 °C (30 s). Melt curves were obtained using a temperature increment from 50 to 95 °C at 0.5 °C/5 s (Supporting Materials, Figure S4). The threshold cycle number (CT) of reactions was determined using the CFX Maestro 2.2 (version 5.2.008.0222) software (Bio-Rad, Hercules, CA, USA). The efficiency of PCR was monitored by using LinRegPCR online tool (https://www.gear-genomics.com/rdml-tools/). The relative expression of the genes of interest was calculated by normalization to GAPDH using the standard 2^−ΔΔCT method. Unstimulated Caco-2 cells after 4 and 24 h of incubation were used as controls. Experiments were performed twice in six technical replications. Gene expression in controls and experimental samples was compared with a t-test using GraphPad Prism v.8.0.1. The p-values ≤ 0.05 were considered significant.

Psd1: pea defensin from Pisum sativum (UNIPROT P81929), recombinant peptide overexpressed in Escherichia coli (KTCEHLADTYRGVCFTNASCDDHCKNKAHLISGTCHNWKCFCTQNC; UniProt P81929 1-46, looked up)
IC50 (C. albicans v47a3; C. albicans v47a3, 10^4 cells/mL, half-modified YPD broth, 30 °C, 24 h, OD 540 nm, twice in triplicate, read-out: concentration of 50% growth inhibition of yeast cells): 25 µM | effect on the morphology of the fungus (C. albicans v47a3; C. albicans v47a3, inverted microscope): did not affect the morphology of the fungus | cytotoxic activity on PBMCs ([1]; 0.2 to 50 μM): no cytotoxic activity | Cell viability ([1]; PBMCs, 50 μM): 100% | expression of HBD-2, IL-1β and IL-8/CXCL8 genes ([2]; 2 μM Psd1, 24 h): Immunostimulatory action of Psd1 was observable | expression of HBD-2, IL-1β and IL-8/CXCL8 genes ([2]; 2 μM Psd1 alone, 4 h, relative to untreated Caco-2): upregulated all three genes | expression of HBD-2, IL-1β and IL-8/CXCL8 genes ([2]; 2 μM Psd1 with C. albicans vs C. albicans alone, 24 h, p < 0.05): significantly reduced the inhibitory effect of pathogenic fungus | expression of HBD-2, IL-1β and IL-8/CXCL8 genes ([2]; 2 μM Psd1 with C. albicans, 4 h): more pronounced activation of the protective immune response
